ChEMBL document CHEMBL1201862, “PubChem BioAssay data set” (2004)
Activity calls are given as the source filed them.

Experiments:
Streptokinase A = target: T1, Streptokinase A (Streptococcus pyogenes serotype M1, UniProt P10520); assay: S. pyogenes streptokinase expression inhibitors, potency, dose response, plasminogen activation absorbance, OD405 (AID 1914); format: functional, Streptococcus pyogenes M1 GAS;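 also: secreted streptokinase activity via plasminogen activation per viability signal from cell pellet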
T1 sequence (P10520 whole entry): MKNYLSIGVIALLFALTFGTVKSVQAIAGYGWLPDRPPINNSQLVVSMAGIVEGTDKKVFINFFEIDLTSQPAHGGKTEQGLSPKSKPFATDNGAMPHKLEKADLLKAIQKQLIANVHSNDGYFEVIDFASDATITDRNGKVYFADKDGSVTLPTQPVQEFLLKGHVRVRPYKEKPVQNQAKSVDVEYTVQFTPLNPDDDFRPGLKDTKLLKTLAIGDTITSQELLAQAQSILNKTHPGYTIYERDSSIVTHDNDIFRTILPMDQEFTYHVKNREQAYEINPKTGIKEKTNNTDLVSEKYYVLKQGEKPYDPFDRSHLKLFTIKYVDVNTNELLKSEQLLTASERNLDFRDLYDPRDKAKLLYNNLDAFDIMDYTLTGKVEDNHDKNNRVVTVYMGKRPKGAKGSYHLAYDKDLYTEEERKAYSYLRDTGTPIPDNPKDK

[1] = target: DNA dC->dU-editing enzyme APOBEC-3G (Homo sapiens, UniProt Q9HC16); assay: Dose Response confirmation of small molecule APOBEC3G DNA Deaminase Inhibitors via a fluorescence-based single-stranded DNA deaminase assay. [Related pubchem assays (depositor defined):AID493012, AID493028]; format: functional
Sequence of DNA dC->dU-editing enzyme APOBEC-3G (Q9HC16 whole entry): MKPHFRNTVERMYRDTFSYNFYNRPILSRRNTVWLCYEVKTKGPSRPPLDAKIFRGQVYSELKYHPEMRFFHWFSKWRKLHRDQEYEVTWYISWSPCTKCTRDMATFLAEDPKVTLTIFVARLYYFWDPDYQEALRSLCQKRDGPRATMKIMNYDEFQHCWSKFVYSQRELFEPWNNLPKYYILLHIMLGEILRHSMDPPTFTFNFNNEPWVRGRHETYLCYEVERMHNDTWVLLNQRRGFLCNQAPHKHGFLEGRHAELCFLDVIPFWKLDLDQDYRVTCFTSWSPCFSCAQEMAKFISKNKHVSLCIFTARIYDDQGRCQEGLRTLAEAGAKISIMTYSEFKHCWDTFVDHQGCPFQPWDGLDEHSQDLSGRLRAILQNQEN

[2] = target: T2, High affinity choline transporter 1 (Homo sapiens, UniProt Q9GZV3); assay: CHT inhibitors, dose response, cell-based, 5-point CRC, membrane potential dye (AID 504840); format: functional
T2 sequence (Q9GZV3 whole entry): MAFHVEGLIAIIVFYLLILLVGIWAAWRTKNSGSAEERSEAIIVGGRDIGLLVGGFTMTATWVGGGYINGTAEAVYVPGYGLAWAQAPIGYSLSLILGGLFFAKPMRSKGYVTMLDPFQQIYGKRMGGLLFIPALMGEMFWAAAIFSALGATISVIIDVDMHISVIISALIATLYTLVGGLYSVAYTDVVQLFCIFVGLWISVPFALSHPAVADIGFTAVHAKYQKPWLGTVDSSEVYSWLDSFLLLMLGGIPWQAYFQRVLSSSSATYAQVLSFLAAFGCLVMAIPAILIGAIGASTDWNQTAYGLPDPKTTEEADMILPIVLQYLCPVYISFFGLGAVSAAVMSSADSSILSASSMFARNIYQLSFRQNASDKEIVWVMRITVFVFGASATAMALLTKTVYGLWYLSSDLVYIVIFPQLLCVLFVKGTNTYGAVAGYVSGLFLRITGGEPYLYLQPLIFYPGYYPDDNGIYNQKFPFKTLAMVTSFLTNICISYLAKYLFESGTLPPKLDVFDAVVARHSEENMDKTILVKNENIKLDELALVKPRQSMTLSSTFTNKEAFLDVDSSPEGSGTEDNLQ

[3] = growth suppression of beta-catenin-knockout colon cells, dose response, cell-based, HCT116, human colon tumor (AID 1045); format: functional;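 also: HCT116 colon tumor cells with beta catenin knocked out; cells exposed to compound for 60 hours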
[4] = growth suppression of PTEN-null colon cells, dose response, cell-based, HCT116 PTEN knockout (AID 1047); format: functional;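 also: HCT116 colon tumor cells with PTEN knocked out; cells exposed to compound for 60 hours before readout; potency for loss of cell viability measured by luminescence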
[5] = target: T3, DNA repair protein RAD52 homolog (Homo sapiens, UniProt P43351); format: functional, biochemical
T3 sequence (P43351 whole entry): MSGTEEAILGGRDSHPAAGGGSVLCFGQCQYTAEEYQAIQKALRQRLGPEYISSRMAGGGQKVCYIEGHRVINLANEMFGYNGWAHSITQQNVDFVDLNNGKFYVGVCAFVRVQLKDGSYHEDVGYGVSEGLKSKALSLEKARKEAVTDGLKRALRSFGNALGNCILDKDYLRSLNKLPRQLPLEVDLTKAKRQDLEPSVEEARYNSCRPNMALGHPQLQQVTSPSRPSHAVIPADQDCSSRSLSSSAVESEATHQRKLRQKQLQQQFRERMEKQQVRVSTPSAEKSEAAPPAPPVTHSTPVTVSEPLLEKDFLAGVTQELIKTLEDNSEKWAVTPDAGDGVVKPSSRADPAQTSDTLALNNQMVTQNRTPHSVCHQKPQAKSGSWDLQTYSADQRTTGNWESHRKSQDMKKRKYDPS

cells = format: functional
[6] = THP-1 cell cytotoxicity, dose response, cytotoxicity control for non-replicating M. tuberculosis project (AID 489025); format: functional
Nonstructural protein 1 = Nonstructural protein 1 (Influenza A virus, UniProt Q194T2); format: functional, Influenza A virus (A/California/07/2009(H1N1))
Sequence of Nonstructural protein 1 (Q194T2 whole entry): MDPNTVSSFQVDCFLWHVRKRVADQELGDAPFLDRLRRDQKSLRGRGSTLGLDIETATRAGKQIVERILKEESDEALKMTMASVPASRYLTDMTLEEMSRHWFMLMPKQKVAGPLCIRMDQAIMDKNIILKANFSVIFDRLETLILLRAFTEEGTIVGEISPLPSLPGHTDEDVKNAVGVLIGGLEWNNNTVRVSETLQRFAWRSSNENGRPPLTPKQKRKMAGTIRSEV

SN12K1 = assay: cells; format: functional; details: Homo sapiens
P388 = assay: cells; format: functional; details: Mus musculus
P388/ADR = assay: cells; format: functional; details: Mus musculus
[7] = target: T4, Adenosylmethionine-8-amino-7-oxononanoate aminotransferase (Mycobacterium tuberculosis, UniProt P9WQ81); assay: Mycobacterium tuberculosis BioA enzyme inhibitor Measured in Biochemical System Using Plate Reader - 2163-02_Inhibitor_Dose_CherryPick_Activity.; format: functional, Mycobacterium tuberculosis UT205
T4 sequence (P9WQ81 whole entry): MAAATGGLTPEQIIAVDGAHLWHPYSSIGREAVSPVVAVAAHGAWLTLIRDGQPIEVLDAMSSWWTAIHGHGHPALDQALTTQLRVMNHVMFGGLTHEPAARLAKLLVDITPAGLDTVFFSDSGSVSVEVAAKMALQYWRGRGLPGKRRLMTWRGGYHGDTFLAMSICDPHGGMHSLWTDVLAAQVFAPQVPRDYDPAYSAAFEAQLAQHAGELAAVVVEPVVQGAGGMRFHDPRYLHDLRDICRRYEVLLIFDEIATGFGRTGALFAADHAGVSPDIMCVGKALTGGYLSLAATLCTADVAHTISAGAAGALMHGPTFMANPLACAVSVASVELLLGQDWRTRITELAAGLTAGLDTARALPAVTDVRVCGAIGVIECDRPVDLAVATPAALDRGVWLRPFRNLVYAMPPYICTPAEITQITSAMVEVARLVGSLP

Genome polyprotein = Genome polyprotein (dengue virus type 2, UniProt P29990); assay: Dengue-2 NS5 methyltransferase inhibitors, primary screen, biochemical, confirmation dose response (AID 588689); format: functional
Sequence of Genome polyprotein (P29990 2492-3391 limits assumed): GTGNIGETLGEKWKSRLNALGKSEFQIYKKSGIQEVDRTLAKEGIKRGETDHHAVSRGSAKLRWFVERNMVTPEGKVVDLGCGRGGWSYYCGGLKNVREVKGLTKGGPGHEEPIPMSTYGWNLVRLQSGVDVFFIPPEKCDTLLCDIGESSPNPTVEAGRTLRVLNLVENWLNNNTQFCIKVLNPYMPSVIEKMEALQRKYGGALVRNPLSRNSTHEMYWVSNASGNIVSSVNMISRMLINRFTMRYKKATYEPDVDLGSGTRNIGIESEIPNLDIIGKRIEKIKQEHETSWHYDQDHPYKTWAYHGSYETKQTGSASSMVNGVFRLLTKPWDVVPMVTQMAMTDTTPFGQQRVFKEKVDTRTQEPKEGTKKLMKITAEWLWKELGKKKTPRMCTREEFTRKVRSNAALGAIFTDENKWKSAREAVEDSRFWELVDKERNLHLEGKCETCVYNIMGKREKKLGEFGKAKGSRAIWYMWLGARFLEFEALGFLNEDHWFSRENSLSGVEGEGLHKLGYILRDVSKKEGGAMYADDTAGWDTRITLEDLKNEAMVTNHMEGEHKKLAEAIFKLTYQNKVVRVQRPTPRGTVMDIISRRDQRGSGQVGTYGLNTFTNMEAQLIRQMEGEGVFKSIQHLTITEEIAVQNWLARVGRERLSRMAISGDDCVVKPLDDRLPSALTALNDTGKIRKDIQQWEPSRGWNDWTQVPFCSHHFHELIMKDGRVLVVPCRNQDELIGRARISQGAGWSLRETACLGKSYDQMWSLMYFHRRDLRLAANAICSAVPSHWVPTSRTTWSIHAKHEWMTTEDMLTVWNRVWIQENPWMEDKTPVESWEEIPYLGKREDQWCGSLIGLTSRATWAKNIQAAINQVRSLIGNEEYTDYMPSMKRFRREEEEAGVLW

Structure (SMILES)	GI50 (SN12K1)	GI50 (P388)	GI50 (P388/ADR)	other results
Cn1c(-c2cc(Br)ccc2O)n[nH]c1=S	–	–	–	EC50 (Streptokinase A): > 150 µM (not active); IC50 [1]: 8.33 µM (active)
CCCCn1c(SCn2nnc3ccccc3c2=O)nc2cc(S(N)(=O)=O)ccc21	–	–	–	IC50 [2]: 15.8 µM (active)
O=C(CN1CCCCC1)N1CCCc2c1c(=O)oc1ccc(OCc3ccccc3)cc21	–	–	–	EC50 [3]: 48.4 µM (active); EC50 [4]: 39.9 µM (active)
CN(C)CC/C=C1/c2ccc(F)cc2Sc2ccc(Cl)cc21	–	–	–	AC50 [5]: 12.8 µM (active); IC50 (cells): 18.6 µM (active); CC50 [6]: 18.9 µM (active)
c1ccc(-c2cnnc(-c3ccccn3)n2)cc1	–	–	–	IC50 (Nonstructural protein 1): 12.9 µM (active)
O=S(=O)(c1ccc(Br)cc1)c1nc(-c2ccccc2)oc1NCCN1CCOCC1	–	–	–	IC50 (Nonstructural protein 1): > 100 µM (active)
COc1ccc2c(c1)OCCc1cn[nH]c1-2	38.2 µM (inactive)	32.5 µM (inactive)	34 µM (inactive)	–
COC(=O)/C=c1/sc2nc3ccccc3n2c1=O	–	–	–	IC50 [1]: 30.8 µM (active)
C/C(=C/C(=O)Nc1ccccc1)Nc1onc(C)c1C	> 100 µM (inactive)	> 100 µM (inactive)	–	–
COc1ccc(/C(Cl)=C(\C=O)c2ccc(OC)c(OC)c2)cc1OC	80.9 µM (inactive)	35.3 µM (inactive)	10.5 µM (inactive)	–
CSc1nc2c(ncn2C2OC(CO)C(O)C(O)C2O)c(=O)[nH]1 (stereo unspecified)	> 100 µM (inactive)	> 100 µM (inactive)	> 10 µM (inactive)	–
O=C[C@@H](CO)O[C@H](C=O)n1cnc2c(=O)nc[nH]c21	284 µM (inactive)	76 µM (inactive)	69.2 µM (inactive)	–
C/C=C/c1ccc2c(c1)O[C@@H](CN(C)C(=O)Cc1cccnc1)[C@H](C)CN([C@H](C)CO)S2(=O)=O	–	–	–	AC50 [7]: 10.3 µM (active)
CN(C(=O)CSc1nc2ccccc2c(=O)n1-c1ccccc1Cl)C1CCS(=O)(=O)C1 (stereo unspecified)	–	–	–	AC50 [7]: 2.22 µM (active)
COc1cccc(N[C@@H]2c3cc4c(cc3C(c3cc(OC)c(O)c(OC)c3)[C@H]3C(=O)OCC32)OCO4)c1 (stereo partly specified)	0.0615 µM (active)	< 0.01 µM (active)	0.0635 µM (active)	–
C=CCOc1ccccc1/C=c1\sc2nc(=O)c(C)nn2c1=O	–	–	–	IC50 (Genome polyprotein): 12.1 µM (active)
